This assay concerns the target T1, bovine P[3] RVC VP8* (Bovine rotavirus C, UniProt L0N4C6).
T1 construct: gene VP4; VP8* galectin-like domain of polyprotein-like spike VP4 (trypsin-cleaved), residues 64-228 (E64-R228), synthetic codon-optimised gene, pGEX-2T N-terminal GST, E. coli BL21(DE3)
Briefly: STD NMR (binding epitope mapping). The conditions noted are these: PBS in D2O, pH 7.4, 278 K; 50 uM protein, 2 mM ligand; both anomers of reducing GlcNAc. The text has this: STD NMR (binding epitope mapping) on bovine P[3]

Consider `CC(=O)N[C@H]1C(O)O[C@H](CO)[C@@H](O[C@@H]2O[C@H](CO)[C@H](O)[C@H](O)[C@H]2O[C@@H]2O[C@@H](C)[C@@H](O)[C@@H](O)[C@@H]2O)[C@@H]1O` (stereo partly drawn) [H2, Fuc-α1,2-Gal-β1,4-GlcNAc], for which the “STD NMR (binding epitope mapping)” value is “All performed STD NMR experiments showed clear signals confirming the binding of H2 antigen”.
